Measurements taken from ChEMBL document CHEMBL3784916, “Synthesis and anticancer activity of novel fluorinated asiatic acid derivatives” (Eur J Med Chem, 2016).

Key:
BJ = experiment: Cytotoxicity against human BJ cells after 72 hrs by MTT assay; assay type: cell-based; conditions: human, bj
A-375 = experiment: Cytotoxicity against human A375 cells after 72 hrs by MTT assay; assay type: functional, cell-based
Jurkat = experiment: Cytotoxicity against human Jurkat cells after 72 hrs by XTT assay; assay type: functional, cell-based
PC-3 = experiment: Cytotoxicity against human PC3 cells after 72 hrs by MTT assay; assay type: functional, cell-based
HeLa = experiment: Cytotoxicity against human HeLa cells after 72 hrs by MTT assay; assay type: functional, cell-based
MIA PaCa-2 = experiment: Cytotoxicity against human MIAPaCa2 cells after 72 hrs by MTT assay; assay type: functional, cell-based
MCF7 = experiment: Cytotoxicity against human MCF7 cells after 72 hrs by MTT assay; assay type: functional, cell-based
HT-29 = experiment: Cytotoxicity against human HT-29 cells after 72 hrs by MTT assay; assay type: functional, cell-based; conditions: HT-29, 72 h

COC(=O)[C@H](C)NC(=O)[C@]12CC[C@@H](C)[C@H](C)[C@H]1C1=CC[C@@H]3[C@@]4(C)C[C@@H](OC(C)=O)[C@H](OC(C)=O)[C@@](C)(COC(C)=O)[C@@H]4CC[C@@]3(C)[C@]1(C)CC2
Activity (BJ): Dose-dependent effect | Activity (A-375): Dose-dependent effect | Activity (Jurkat): Dose-dependent effect | Activity (PC-3): Dose-dependent effect | IC50 (HeLa): 1070 nM | Activity (MIA PaCa-2): Dose-dependent effect | Activity (MCF7): Dose-dependent effect

CC(=O)OC[C@@]1(C)[C@@H]2CC[C@]3(C)[C@H](CC=C4[C@@H]5[C@@H](C)[C@H](C)CC[C@]5(C(N)=O)CC[C@]43C)[C@@]2(C)C[C@@H](OC(C)=O)[C@@H]1OC(C)=O
Activity (BJ): Dose-dependent effect | Activity (A-375): Dose-dependent effect | Activity (Jurkat): Dose-dependent effect | Activity (PC-3): Dose-dependent effect | IC50 (HeLa): 1650 nM | Activity (MIA PaCa-2): Dose-dependent effect | Activity (MCF7): Dose-dependent effect

CC(=O)OC[C@]1(C)C=C(C=O)[C@@]2(C)[C@H]1CC[C@]1(C)[C@@H]2C[C@@H](F)[C@]23OC(=O)[C@@]4(CC[C@@H](C)[C@H](C)[C@H]42)CC[C@]31C
Activity (BJ): Dose-dependent effect | Activity (A-375): Dose-dependent effect | Activity (Jurkat): Dose-dependent effect | Activity (PC-3): Dose-dependent effect | IC50 (HT-29): 2020 nM | IC50 (HeLa): 1400 nM | Activity (MIA PaCa-2): Dose-dependent effect | Activity (MCF7): Dose-dependent effect

C[C@H]1[C@H](C)CC[C@@]23CC[C@]4(C)[C@](OC2=O)([C@H](F)C[C@@H]2[C@@]5(C)C[C@@H](O)[C@H](O)[C@@](C)(CO)[C@@H]5CC[C@]24C)[C@H]13
Activity (BJ): Dose-dependent effect | Activity (A-375): Dose-dependent effect | Activity (Jurkat): Dose-dependent effect | Activity (PC-3): Dose-dependent effect | IC50 (HT-29): 51200 nM | IC50 (HeLa): 60200 nM | Activity (MIA PaCa-2): Dose-dependent effect | Activity (MCF7): Dose-dependent effect

CC(=O)OC[C@@]1(C)[C@@H]2CC[C@]3(C)[C@H](CC=C4[C@@H]5[C@@H](C)[C@H](C)CC[C@]5(C(=O)O)CC[C@]43C)[C@@]2(C)C[C@@H](OC(C)=O)[C@@H]1OC(C)=O
Activity (BJ): Dose-dependent effect | Activity (A-375): Dose-dependent effect | Activity (Jurkat): Dose-dependent effect | Activity (PC-3): Dose-dependent effect | IC50 (HeLa): 6100 nM | Activity (MIA PaCa-2): Dose-dependent effect | Activity (MCF7): Dose-dependent effect

Cc1nccn1C(=O)OC[C@]1(C)C=C(C=O)[C@@]2(C)[C@H]1CC[C@]1(C)[C@@H]2C[C@@H](F)[C@]23OC(=O)[C@@]4(CC[C@@H](C)[C@H](C)[C@H]42)CC[C@]31C
Activity (BJ): Dose-dependent effect | Activity (A-375): Dose-dependent effect | Activity (Jurkat): Dose-dependent effect | Activity (PC-3): Dose-dependent effect | IC50 (HT-29): 2800 nM | IC50 (HeLa): 1630 nM | Activity (MIA PaCa-2): Dose-dependent effect | Activity (MCF7): Dose-dependent effect

CC(=O)OC[C@@]1(C)[C@@H]2CC[C@]3(C)[C@H](C[C@@H](F)[C@]45OC(=O)[C@@]6(CC[C@@H](C)[C@H](C)[C@H]64)CC[C@]53C)[C@@]2(C)CC(=O)[C@@H]1OC(C)=O
Activity (BJ): Dose-dependent effect | Activity (A-375): Dose-dependent effect | Activity (Jurkat): Dose-dependent effect | Activity (PC-3): Dose-dependent effect | IC50 (HeLa): 11700 nM | Activity (MIA PaCa-2): Dose-dependent effect | Activity (MCF7): Dose-dependent effect

C[C@H]1[C@H](C)CC[C@@]23CC[C@]4(C)[C@](OC2=O)([C@H](F)C[C@@H]2[C@@]5(C)C(C=O)=C[C@@](C)(COC(=O)n6ccnc6)[C@@H]5CC[C@]24C)[C@H]13
Activity (BJ): Dose-dependent effect | Activity (A-375): Dose-dependent effect | Activity (Jurkat): Dose-dependent effect | Activity (PC-3): Dose-dependent effect | IC50 (HT-29): 2370 nM | IC50 (HeLa): 1620 nM | Activity (MIA PaCa-2): Dose-dependent effect | Activity (MCF7): Dose-dependent effect

CC(=O)OC[C@@]1(C)[C@@H]2CC[C@]3(C)[C@H](C[C@@H](F)[C@]45[C@@H]6[C@@H](C)[C@H](C)CC[C@@]6(CC[C@]43C)C(=O)N5C)[C@@]2(C)C[C@@H](OC(C)=O)[C@@H]1OC(C)=O
Activity (BJ): Dose-dependent effect | Activity (A-375): Dose-dependent effect | Activity (Jurkat): Dose-dependent effect | Activity (PC-3): Dose-dependent effect | IC50 (HT-29): 8500 nM | IC50 (HeLa): 2950 nM | Activity (MIA PaCa-2): Dose-dependent effect | Activity (MCF7): Dose-dependent effect

CC(=O)OC[C@@]1(C)[C@@H]2CC[C@]3(C)[C@H](C[C@@H](F)[C@]45NC(=O)[C@@]6(CC[C@@H](C)[C@H](C)[C@H]64)CC[C@]53C)[C@@]2(C)C[C@@H](OC(C)=O)[C@@H]1OC(C)=O
Activity (BJ): Dose-dependent effect | Activity (A-375): Dose-dependent effect | Activity (Jurkat): Dose-dependent effect | Activity (PC-3): Dose-dependent effect | IC50 (HT-29): 7500 nM | IC50 (HeLa): 2370 nM | Activity (MIA PaCa-2): Dose-dependent effect | Activity (MCF7): Dose-dependent effect

CC(=O)OC[C@@]1(C)[C@@H]2CC[C@]3(C)[C@H](C[C@@H](F)[C@]45OC(=O)[C@@]6(CC[C@@H](C)[C@H](C)[C@H]64)CC[C@]53C)[C@@]2(C)C[C@@H](OC(C)=O)[C@@H]1OC(C)=O
Activity (BJ): Dose-dependent effect | Activity (A-375): Dose-dependent effect | Activity (Jurkat): Dose-dependent effect | Activity (PC-3): Dose-dependent effect | IC50 (HT-29): 6380 nM | IC50 (HeLa): 4430 nM | Activity (MIA PaCa-2): Dose-dependent effect | Activity (MCF7): Dose-dependent effect

COC(=O)CNC(=O)[C@]12CC[C@@H](C)[C@H](C)[C@H]1C1=CC[C@@H]3[C@@]4(C)C[C@@H](OC(C)=O)[C@H](OC(C)=O)[C@@](C)(COC(C)=O)[C@@H]4CC[C@@]3(C)[C@]1(C)CC2
Activity (BJ): Dose-dependent effect | Activity (A-375): Dose-dependent effect | Activity (Jurkat): Dose-dependent effect | Activity (PC-3): Dose-dependent effect | IC50 (HeLa): 980 nM | Activity (MIA PaCa-2): Dose-dependent effect | Activity (MCF7): Dose-dependent effect

C[C@H]1[C@H](C)CC[C@@]23CC[C@]4(C)[C@](OC2=O)([C@H](F)C[C@@H]2[C@@]5(C)C(C#N)=C[C@@](C)(CO)[C@@H]5CC[C@]24C)[C@H]13
Activity (BJ): Dose-dependent effect | Activity (A-375): Dose-dependent effect | Activity (Jurkat): Dose-dependent effect | Activity (PC-3): Dose-dependent effect | IC50 (HeLa): 7500 nM | Activity (MIA PaCa-2): Dose-dependent effect | Activity (MCF7): Dose-dependent effect

CNC(=O)[C@]12CC[C@@H](C)[C@H](C)[C@H]1C1=CC[C@@H]3[C@@]4(C)C[C@@H](OC(C)=O)[C@H](OC(C)=O)[C@@](C)(COC(C)=O)[C@@H]4CC[C@@]3(C)[C@]1(C)CC2
Activity (BJ): Dose-dependent effect | Activity (A-375): Dose-dependent effect | Activity (Jurkat): Dose-dependent effect | Activity (PC-3): Dose-dependent effect | IC50 (HeLa): 1100 nM | Activity (MIA PaCa-2): Dose-dependent effect | Activity (MCF7): Dose-dependent effect
